Reference: US12319695B2, “Sulfonamide derivative with fused pyrimidine skeleton, having epidermal growth factor receptor mutation inhibitory effect” (HANMI PHARM. CO., LTD., priority 2018, dated 2025)

Key:
[1] = tested on: Ba/F3 EGFR del19/T790M/C797S cells; experiment: Ba/F3 EGFR del19/T790M/C797S cell growth inhibition test (CellTiter-Glo, 72 hours); type: cell-based; details: Ba/F3 cell line overexpressing EGFR del19/T790M/C797S, 72 hours, CellTiter-Glo; read-out: Ba/F3 EGFR del19/T790M/C797S cells, GI50;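 also: compounds tested in tenfold steps from 10 µM down to 0.1 nM, with luminescence read on a microplate reader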
Experimental: Specifically, the cell line stored in a liquid nitrogen tank was taken out, rapidly dissolved at 37° C., and thereafter centrifuged to remove the cryopreservation medium. The recovered cell pellets were well mixed in a culture medium, put into a culture flask, and passaged under conditions of 37° C. and 5% carbon dioxide to stabilize the cells to the logarithmic growth phase. Thereafter, cells were taken from the flask, centrifuged to remove the culture medium, washed with Dulbecco's phosphate buffered saline (DPBS), and then centrifuged again to remove DPBS, and then diluted with a culture medium to have 1×10^5 cells/ml. The diluted cells were dispensed into a 96-well plate at 100 μl per well. […] The DMSO solution containing each compound was diluted with a culture medium to a concentration of 30 μM, and then tenfold serial dilution was used to prepare a solution diluted upto 0.3 nM (in order to reach a final DMSO concentration of 1% or less).
50 μl of a test solution of each compound was added each time to the 96-well plate in which the cells were dispensed, thus reaching a final concentration of 10 μM to 0.1 nM in 150 μl per well. The cells treated with the test solution were cultured under conditions of 37° C. and 5% carbon dioxide for 72 hours. After the 96-well plate in which the cells were cultured was acclimated to room temperature for 30 minutes, CellTiter-Glo® Luminescent Cell Assay Reagent (CTG, Promega) was dispensed at 50 μl per well. After stabilizing luminescence signals for 10 minutes, the luminescence intensity was measured with a microplate reader.

[2] = tested on: PC9 EGFR del19/T790M/C797S cells; experiment: PC9 EGFR del19/T790M/C797S cell growth inhibition test (CellTiter-Glo, 72 hours); type: cell-based; details: Homo sapiens, PC-9, PC9 cell line overexpressing EGFR del19/T790M/C797S
Experimental: For cell growth conditions, an RPMI Medium 1640 (1×) containing 10% FBS and 1% penicillin/straptomycin (Gibco BRL) was used.
Specifically, the cell line stored in a liquid nitrogen tank was taken out, rapidly dissolved at 37° C., and thereafter centrifuged to remove the cryopreservation medium. The recovered cell pellets were well mixed in a culture medium, put into a culture flask, and passaged under conditions of 37° C. and 5% carbon dioxide to stabilize the cells to logarithmic cell growth phase. Thereafter, cells were taken from the flask, centrifuged to remove the culture medium, washed with Dulbecco's phosphate buffered saline (DPBS), and then centrifuged again to remove DPBS, and then diluted with a culture medium to have 1×10^5 cells/ml. The diluted cells were dispensed into a 96-well plate at 100 μl per well. The compounds prepared in the above examples were each dissolved in 99.5% dimethylsulfoxide (hereinafter, DMSO, cell culture grade) to a concentration of 10 mM. The DMSO solution containing each compound was diluted with a culture medium to a concentration of 30 μM, and then tenfold serial dilution was used to prepare a solution diluted upto 0.3 nM (in order to reach a final DMSO concentration of 1% or less).
The cells treated with the test solution were cultured under conditions of 37° C. and 5% carbon dioxide for 72 hours. After the 96-well plate in which the cells were cultured was acclimated to room temperature for 30 minutes, CellTiter-Glo® Luminescent Cell Assay Reagent (CTG, Promega) was dispensed at 50 μl per well. After stabilizing luminescence signals for 10 minutes, the luminescence intensity was measured with a microplate reader.
Based on the measured value, a […] value of each compound, which is the concentration at which cell growth is inhibited by 50%, was calculated with respect to 100% of the value obtained by subtracting the initial cell density value of a well not treated with a test material from the final cell density value thereof. The GI50 value of each compound was calculated using nonlinear regression of GraphPad Prism; log[inhibitor] vs. normalized response analysis.

EGFR L858R/T790M/C797S = target: T1, EGFR L858R/T790M/C797S (Homo sapiens, UniProt P00533, C797S/L858R/T790M); experiment: EGFR enzyme inhibitory activity evaluation (Z'-LYTE kinase assay), L858R/T790M/C797S; type: biochemical
T1 construct: purchased Thermo Fisher Scientific Inc
Experimental: (§1) For this, a Z′-LYTE kinase assay kit (ThermoFisher Scientific, PV3191) was used, and the kinases used were purchased from Thermo Fisher Scientific Inc. A simple test method is summarized as follows.
(§2) Each kinase was diluted to a concentration of 7-45 ng/assay using a kinase buffer (50 mM HEPES (pH 7.5), 10 mM MgCl2, 4 mM MnCl2, 2 mM DTT, 1 mM EGTA, 0.01% BRIJ-35, or 50 mM HEPES (pH 6.5), 10 mM MgCl2, 1 mM EGTA, 0.01% BRIJ-35, 0.02% NaN3). The test was performed on 384 well plates (well polystyrene flat-bottomed plates). First, after 5 μl of a diluted compound solution was added, a protein substrate at a concentration as specified in the kit, 10 μl of a kinase mixed solution, and 5 μl of a 10-100 μM ATP solution were added to the sample and reacted at room temperature for 60 minutes in a stirrer. Thereafter, 10 μl of a coloring solution was added each to cause a fluorescence reaction of the peptide substrate for 60 minutes, and 10 μl of a stopping solution was added each to terminate the reaction.

EGFR T790M/L858R = target: T2, EGFR T790M/L858R (Homo sapiens, UniProt P00533, L858R/T790M); experiment: EGFR enzyme inhibitory activity evaluation (Z'-LYTE kinase assay), T790M/L858R; type: biochemical
T2 construct: purchased Thermo Fisher Scientific Inc
Experimental: as §1, §2

EGFR WT = target: T3, EGFR WT (Homo sapiens, UniProt P00533); experiment: EGFR enzyme inhibitory activity evaluation (Z'-LYTE kinase assay), WT; type: biochemical
T3 construct: purchased Thermo Fisher Scientific Inc
T3 sequence (P00533 25-1210): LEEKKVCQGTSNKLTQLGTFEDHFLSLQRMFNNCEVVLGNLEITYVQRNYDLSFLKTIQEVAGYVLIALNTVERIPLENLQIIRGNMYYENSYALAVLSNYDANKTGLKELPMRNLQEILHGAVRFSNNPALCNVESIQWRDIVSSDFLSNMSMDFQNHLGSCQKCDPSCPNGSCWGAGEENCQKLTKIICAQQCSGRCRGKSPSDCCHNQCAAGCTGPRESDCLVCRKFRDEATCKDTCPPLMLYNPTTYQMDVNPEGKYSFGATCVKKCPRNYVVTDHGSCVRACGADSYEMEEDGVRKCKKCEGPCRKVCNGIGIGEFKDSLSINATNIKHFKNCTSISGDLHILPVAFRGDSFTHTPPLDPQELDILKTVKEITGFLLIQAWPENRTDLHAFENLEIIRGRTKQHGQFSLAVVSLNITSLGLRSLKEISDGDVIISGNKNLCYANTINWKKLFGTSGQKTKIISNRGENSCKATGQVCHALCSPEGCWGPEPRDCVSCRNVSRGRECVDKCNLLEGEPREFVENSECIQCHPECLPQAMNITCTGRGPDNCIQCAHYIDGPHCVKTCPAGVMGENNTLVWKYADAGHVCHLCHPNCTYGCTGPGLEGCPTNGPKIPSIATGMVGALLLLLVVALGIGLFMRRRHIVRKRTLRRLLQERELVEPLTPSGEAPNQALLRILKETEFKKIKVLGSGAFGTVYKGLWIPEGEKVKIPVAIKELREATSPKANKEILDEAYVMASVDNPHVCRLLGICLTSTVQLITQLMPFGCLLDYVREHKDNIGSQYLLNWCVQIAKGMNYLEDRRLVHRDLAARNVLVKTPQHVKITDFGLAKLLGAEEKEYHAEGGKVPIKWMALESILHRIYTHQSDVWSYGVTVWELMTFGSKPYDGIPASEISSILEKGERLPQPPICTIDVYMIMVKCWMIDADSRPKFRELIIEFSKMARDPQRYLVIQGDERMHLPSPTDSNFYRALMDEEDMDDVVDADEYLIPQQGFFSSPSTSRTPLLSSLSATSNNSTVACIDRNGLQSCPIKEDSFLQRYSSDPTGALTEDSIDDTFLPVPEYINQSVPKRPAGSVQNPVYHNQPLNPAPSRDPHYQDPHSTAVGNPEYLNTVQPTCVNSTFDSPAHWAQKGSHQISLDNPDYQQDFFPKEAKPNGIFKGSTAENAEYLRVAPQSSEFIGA
Experimental: as §1, §2

T1 sequence (P00533 25-1210 T790M/C797S/L858R): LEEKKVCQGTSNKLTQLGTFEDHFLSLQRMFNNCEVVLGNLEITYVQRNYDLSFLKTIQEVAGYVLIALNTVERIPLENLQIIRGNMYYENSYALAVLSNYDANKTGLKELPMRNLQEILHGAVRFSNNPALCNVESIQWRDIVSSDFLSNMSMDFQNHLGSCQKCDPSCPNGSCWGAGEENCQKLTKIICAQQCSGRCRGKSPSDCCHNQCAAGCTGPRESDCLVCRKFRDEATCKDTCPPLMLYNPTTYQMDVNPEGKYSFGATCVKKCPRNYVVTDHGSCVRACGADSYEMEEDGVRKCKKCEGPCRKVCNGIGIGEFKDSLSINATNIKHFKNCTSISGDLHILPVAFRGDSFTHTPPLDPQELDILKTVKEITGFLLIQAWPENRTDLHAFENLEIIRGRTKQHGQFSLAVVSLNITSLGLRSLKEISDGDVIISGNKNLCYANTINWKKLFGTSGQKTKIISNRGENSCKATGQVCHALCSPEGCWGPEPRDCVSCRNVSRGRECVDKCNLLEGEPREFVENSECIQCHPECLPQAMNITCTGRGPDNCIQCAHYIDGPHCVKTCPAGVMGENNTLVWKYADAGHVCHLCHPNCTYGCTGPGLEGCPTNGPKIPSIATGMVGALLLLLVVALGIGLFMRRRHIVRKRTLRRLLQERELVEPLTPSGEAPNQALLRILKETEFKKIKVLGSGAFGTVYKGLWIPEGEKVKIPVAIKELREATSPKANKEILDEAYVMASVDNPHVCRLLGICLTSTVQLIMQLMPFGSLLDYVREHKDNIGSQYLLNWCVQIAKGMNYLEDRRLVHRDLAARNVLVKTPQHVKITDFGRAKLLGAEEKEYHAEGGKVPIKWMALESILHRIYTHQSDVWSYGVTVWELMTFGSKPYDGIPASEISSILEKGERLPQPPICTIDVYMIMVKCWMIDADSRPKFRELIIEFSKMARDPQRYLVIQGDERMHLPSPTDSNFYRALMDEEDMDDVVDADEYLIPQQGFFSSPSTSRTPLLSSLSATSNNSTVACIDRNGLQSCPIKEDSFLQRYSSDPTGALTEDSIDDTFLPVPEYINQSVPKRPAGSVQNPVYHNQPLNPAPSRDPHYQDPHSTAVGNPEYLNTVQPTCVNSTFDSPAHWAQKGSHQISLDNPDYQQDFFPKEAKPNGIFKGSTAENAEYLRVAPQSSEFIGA
T2 sequence (P00533 25-1210 T790M/L858R): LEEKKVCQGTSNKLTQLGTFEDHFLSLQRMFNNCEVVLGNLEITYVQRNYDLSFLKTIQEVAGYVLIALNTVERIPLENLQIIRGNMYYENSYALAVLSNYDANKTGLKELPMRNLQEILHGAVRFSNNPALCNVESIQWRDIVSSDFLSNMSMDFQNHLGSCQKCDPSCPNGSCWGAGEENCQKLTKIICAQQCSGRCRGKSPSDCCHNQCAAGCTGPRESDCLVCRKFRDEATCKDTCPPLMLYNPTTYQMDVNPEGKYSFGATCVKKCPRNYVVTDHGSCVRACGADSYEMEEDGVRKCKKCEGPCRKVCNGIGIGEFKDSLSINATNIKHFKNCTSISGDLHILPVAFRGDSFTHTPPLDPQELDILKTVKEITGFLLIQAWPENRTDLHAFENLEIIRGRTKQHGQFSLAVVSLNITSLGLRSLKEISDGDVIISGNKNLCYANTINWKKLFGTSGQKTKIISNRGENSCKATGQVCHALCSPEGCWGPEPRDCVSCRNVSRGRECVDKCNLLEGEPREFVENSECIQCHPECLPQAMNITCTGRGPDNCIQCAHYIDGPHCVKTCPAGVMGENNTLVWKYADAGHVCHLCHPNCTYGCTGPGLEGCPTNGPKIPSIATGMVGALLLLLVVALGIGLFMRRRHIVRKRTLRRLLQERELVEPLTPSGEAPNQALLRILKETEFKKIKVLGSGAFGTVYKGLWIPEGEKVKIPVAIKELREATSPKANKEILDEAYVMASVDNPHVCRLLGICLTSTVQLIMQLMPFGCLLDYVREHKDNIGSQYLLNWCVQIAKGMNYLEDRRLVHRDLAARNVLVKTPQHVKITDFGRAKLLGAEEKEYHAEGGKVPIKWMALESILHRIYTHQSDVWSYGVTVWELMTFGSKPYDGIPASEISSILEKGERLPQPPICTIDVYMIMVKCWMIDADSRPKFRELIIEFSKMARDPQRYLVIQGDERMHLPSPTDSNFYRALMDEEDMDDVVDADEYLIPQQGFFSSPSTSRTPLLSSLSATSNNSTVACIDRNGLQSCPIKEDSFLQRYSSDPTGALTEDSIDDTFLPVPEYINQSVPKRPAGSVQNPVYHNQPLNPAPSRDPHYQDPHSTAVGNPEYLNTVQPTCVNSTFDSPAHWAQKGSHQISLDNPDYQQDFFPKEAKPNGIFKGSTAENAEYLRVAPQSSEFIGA

GI50 [1] [nM] | GI50 [2] [nM] | IC50 (EGFR L858R/T790M/C797S) [nM] | IC50 (EGFR T790M/L858R) [nM] | IC50 (EGFR WT) [nM] | SMILES
10 | 201 |  |  |  | CCN1CCN(c2ccc(Nc3nc(Nc4ccccc4N(C)S(C)(=O)=O)c4cc[nH]c4n3)cc2F)CC1 [Example 8, N-(2-((2-((3-fluoro-4-(4-ethylpiperazin-1-yl)phenyl)amino)-7H-pyrrolo[2,3-d]pyrimidine-4-yl)amino)phenyl)-N-methylmethanesulfonamide]
11 | 267 |  |  |  | CN1CCN(C2CCN(c3ccc(Nc4nc(Nc5ccccc5N(C)S(C)(=O)=O)c5cc[nH]c5n4)cc3F)CC2)CC1 [Example 13, N-(2-((2-((3-fluoro-4-(4-(4-methylpiperazin-1-yl)piperidin-1-yl)phenyl)amino)-7H-pyrrolo[2,3-d]pyrimidine-4-yl)amino)phenyl)-N-methylmethanesulfonamide]
15 | 126 | 4 | 2.9 | 4490 | CCN1CCN(C2CCN(c3ccc(Nc4nc(Nc5ccccc5N(C)S(C)(=O)=O)c5cc[nH]c5n4)cc3F)CC2)CC1 [Example 14, N-(2-((2-((3-fluoro-4-(4-(4-ethylpiperazin-1-yl)piperidin-1-yl)phenyl)amino)-7H-pyrrolo[2,3-d]pyrimidine-4-yl)amino)phenyl)-N-methylmethanesulfonamide]
 | 131 |  |  |  | CC(C)N1CCN(C2CCN(c3ccc(Nc4nc(Nc5ccccc5N(C)S(C)(=O)=O)c5cc[nH]c5n4)cc3F)CC2)CC1 [Example 15, N-(2-((2-((3-fluoro-4-(4-(4-isopropylpiperazin-1-yl)piperidin-1-yl)phenyl)amino)-7H-pyrrolo[2,3-d]pyrimidine-4-yl)amino)phenyl)-N-methylmethanesulfonamide]
 | 160 | 4 | 2.7 | 1530 | CCCN1CCN(C2CCN(c3ccc(Nc4nc(Nc5ccccc5N(C)S(C)(=O)=O)c5cc[nH]c5n4)cc3F)CC2)CC1 [Example 16, N-(2-((2-((3-fluoro-4-(4-(4-propylpiperazin-1-yl)piperidin-1-yl)phenyl)amino)-7H-pyrrolo[2,3-d]pyrimidine-4-yl)amino)phenyl)-N-methylmethanesulfonamide]
 | 311 |  |  |  | CN(c1ccccc1Nc1nc(Nc2ccc(N3CCC(N4CCN(C5CC5)CC4)CC3)c(F)c2)nc2[nH]ccc12)S(C)(=O)=O [Example 17, N-(2-((2-((3-fluoro-4-(4-(4-cyclopropylpiperazin-1-yl)piperidin-1-yl)phenyl)amino)-7H-pyrrolo[2,3-d]pyrimidine-4-yl)amino)phenyl)-N-methylmethanesulfonamide]
 | 369 |  |  |  | CCN1CCN(c2c(F)cc(Nc3nc(Nc4ccccc4N(C)S(C)(=O)=O)c4cc[nH]c4n3)cc2F)CC1 [Example 26, N-(2-((2-((4-(4-ethylpiperazin-1-yl)-3,5-difluorophenyl)amino)-7H-pyrrolo[2,3-d]pyrimidine-4-yl)amino)phenyl)-N-methylmethanesulfonamide]
20 |  | 13 | 12 | 2180 | CN1CC2(C1)CN(c1ccc(Nc3nc(Nc4ccccc4N(C)S(C)(=O)=O)c4cc[nH]c4n3)cc1F)C2 [Example 36, N-(2-((2-((3-fluoro-4-(6-methyl-2,6-diazaspiro[3.3]heptan-2-yl)phenyl)amino)-7H-pyrrolo[2,3-d]pyrimidine-4-yl)amino)phenyl)-N-methylmethanesulfonamide]
123 | 951 |  |  |  | CN1CCN(c2ccc(Nc3nc(Nc4ccccc4NS(C)(=O)=O)c4cc[nH]c4n3)cc2F)CC1 [Example 42, N-(2-((2-((3-fluoro-4-(4-methylpiperazin-1-yl)phenyl)amino)-7H-pyrrolo[2,3-d]pyrimidine-4-yl)amino)phenyl)methanesulfonamide]
 | 858 |  |  |  | CCN1CCN(c2ccc(Nc3nc(Nc4ccccc4NS(C)(=O)=O)c4cc[nH]c4n3)cc2F)CC1 [Example 49, N-(2-((2-((4-(4-ethylpiperazin-1-yl)-3-fluorophenyl)amino)-7H-pyrrolo[2,3-d]pyrimidine-4-yl)amino)phenyl)methanesulfonamide]
7 | 698 |  |  |  | CCN1CCN(C2CCN(c3ccc(Nc4nc(Nc5ccccc5NS(C)(=O)=O)c5cc[nH]c5n4)cc3F)CC2)CC1 [Example 53, N-(2-((2-((4-(4-(4-ethylpiperazin-1-yl)piperidin-1-yl)-3-fluorophenyl)amino)-7H-pyrrolo[2,3-d]pyrimidine-4-yl)amino)phenyl)methanesulfonamide]
 | 530 |  |  |  | CCN1CCN(C2CCN(c3ccc(Nc4nc(Nc5ccccc5N(C)S(=O)(=O)CC)c5cc[nH]c5n4)cc3F)CC2)CC1 [Example 54, N-(2-((2-((4-(4-(4-ethylpiperazin-1-yl)piperidin-1-yl)-3-fluorophenyl)amino)-7H-pyrrolo[2,3-d]pyrimidine-4-yl)amino)phenyl)-N-methylethanesulfonamide]
 | 564 |  |  |  | CCN1CCC2(CCN(c3ccc(Nc4nc(Nc5ccccc5N(C)S(=O)(=O)CC)c5cc[nH]c5n4)cc3F)CC2)C1 [Example 56, N-(2-((2-((4-(2-ethyl-2,8-diazaspiro[4.5]decan-8-yl)-3-fluorophenyl)amino)-7H-pyrrolo[2,3-d]pyrimidine-4-yl)amino)phenyl)-N-methylethanesulfonamide]
 | 3380 |  |  |  | CN1CCN(C2CCN(c3ccc(Nc4nc(Nc5ccccc5N(C)S(C)(=O)=O)c5ccn(C)c5n4)cc3F)CC2)CC1 [Example 65, N-(2-((2-((3-fluoro-4-(4-(4-methylpiperazin-1-yl)piperidin-1-yl)phenyl)amino)-7-methyl-7H-pyrrolo[2,3-d]pyrimidine-4-yl)amino)phenyl)-N-methylmethanesulfonamide]
